{
  "source": "ChEMBL document CHEMBL5329217",
  "about": "“Hesperidin Methyl Chalcone reduces extracellular Aβ(25-35) peptide aggregation and fibrillation and also protects Neuro 2a cells from Aβ(25-35) induced neuronal dysfunction” (Bioorg Med Chem, 2023)",
  "key": {"[1]": {"target": "Acetylcholinesterase (Electrophorus electricus) (UniProt O42275)", "sequence (O42275 24-633 limits assumed)": "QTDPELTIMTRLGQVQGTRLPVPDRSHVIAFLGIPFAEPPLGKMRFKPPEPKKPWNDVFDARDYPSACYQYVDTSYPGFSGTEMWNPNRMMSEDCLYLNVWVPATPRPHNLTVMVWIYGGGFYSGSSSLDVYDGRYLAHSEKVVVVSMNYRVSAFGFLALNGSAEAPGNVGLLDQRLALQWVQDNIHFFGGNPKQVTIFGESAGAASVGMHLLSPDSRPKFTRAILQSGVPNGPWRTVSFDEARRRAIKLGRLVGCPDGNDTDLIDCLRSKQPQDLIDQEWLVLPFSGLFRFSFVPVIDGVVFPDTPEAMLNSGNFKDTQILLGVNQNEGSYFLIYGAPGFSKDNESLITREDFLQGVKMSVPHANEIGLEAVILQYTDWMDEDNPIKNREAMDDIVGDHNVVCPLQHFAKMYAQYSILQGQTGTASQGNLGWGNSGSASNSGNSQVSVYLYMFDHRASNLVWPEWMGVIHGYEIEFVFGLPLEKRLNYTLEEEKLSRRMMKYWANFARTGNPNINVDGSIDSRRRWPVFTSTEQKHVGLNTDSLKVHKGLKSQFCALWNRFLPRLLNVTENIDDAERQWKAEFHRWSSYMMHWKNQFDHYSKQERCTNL", "assay": "Inhibition of electric eel AchE using acetylthiocholine iodide as substrate at 100 ug/ml by Ellman's method relative to control", "conditions": "dose 100.0 µg/ml"}, "[2]": {"assay": "Antioxidant activity assessed as free radical scavenging activity at 100 ug/ml by DPPH assay relative to control", "format": "functional", "conditions": "dose 100.0 µg/ml"}, "[3]": {"target": "Amyloid-beta precursor protein (Homo sapiens) (UniProt P05067)", "sequence (P05067 whole entry)": "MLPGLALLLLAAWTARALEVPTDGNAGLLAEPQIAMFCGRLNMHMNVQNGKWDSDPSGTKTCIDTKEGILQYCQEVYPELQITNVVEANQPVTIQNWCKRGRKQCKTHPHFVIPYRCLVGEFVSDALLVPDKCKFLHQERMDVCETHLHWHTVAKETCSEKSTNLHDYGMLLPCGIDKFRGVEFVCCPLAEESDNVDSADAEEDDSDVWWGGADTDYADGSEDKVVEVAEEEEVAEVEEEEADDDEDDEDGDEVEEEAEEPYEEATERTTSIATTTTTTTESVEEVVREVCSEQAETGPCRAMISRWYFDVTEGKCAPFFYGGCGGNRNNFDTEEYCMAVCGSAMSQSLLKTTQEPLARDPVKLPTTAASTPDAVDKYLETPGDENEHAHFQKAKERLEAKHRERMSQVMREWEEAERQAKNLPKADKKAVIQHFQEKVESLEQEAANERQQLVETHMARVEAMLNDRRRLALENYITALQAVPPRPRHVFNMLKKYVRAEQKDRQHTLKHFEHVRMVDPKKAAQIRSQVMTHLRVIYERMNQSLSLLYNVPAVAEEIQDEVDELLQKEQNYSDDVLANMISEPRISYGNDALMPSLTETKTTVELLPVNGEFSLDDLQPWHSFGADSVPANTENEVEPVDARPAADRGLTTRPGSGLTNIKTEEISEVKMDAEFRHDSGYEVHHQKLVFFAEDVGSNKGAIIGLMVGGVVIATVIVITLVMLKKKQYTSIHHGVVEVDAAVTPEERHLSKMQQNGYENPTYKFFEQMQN", "assay": "Disaggregation of amyloid beta (25 to 35) (unknown origin) mature fibrils at 50 ug/ml incubated for 1 to 9 days by ThT-based fluorescence microscopic analysis", "conditions": "dose 50.0 µg/ml, time 1-9 day"}},
  "note": "The source made the active and inactive calls. The rule behind the calls is not given here.",
  "data": [
    {"smiles": "COc1ccc([C@@H]2CC(=O)c3c(O)cc(O[C@@H]4O[C@H](CO[C@@H]5O[C@@H](C)[C@H](O)[C@@H](O)[C@H]5O)[C@@H](O)[C@H](O)[C@H]4O)cc3O2)cc1O", "values": [
      {"measurement": "inhibition", "setting": "[1]", "result": 94.4, "unit": "%"},
      {"measurement": "inhibition", "setting": "[2]", "result": 56, "unit": "%"}
    ]},
    {"smiles": "COc1ccc2c3c1O[C@H]1C[C@@H](O)C=C[C@@]31CCN(C)C2", "values": [
      {"measurement": "Activity", "setting": "[3]", "result": "Active"}
    ]}
  ]
}
